Results on nine compounds are retold here after ChEMBL document CHEMBL5465560, “Selectivity Literature for EUbOPEN Chemogenomic Library” (2024).

For assay [1], the target named is Tyrosine-protein kinase FRK (Homo sapiens) (UniProt P42685). As to conditions: at 10 µM.
The target of assay [2] is Serine/threonine-protein kinase 24 (Homo sapiens) (UniProt Q9Y6E0). As to the kind of experiment: Selectivity interaction (KinomeScan (DiscoverX)) EUB0001079a STK24. The conditions noted are these: at 1 µM.
For assay [3], the target named is T1, Protein kinase C epsilon type (Homo sapiens) (UniProt Q02156).
T1 sequence (whole entry): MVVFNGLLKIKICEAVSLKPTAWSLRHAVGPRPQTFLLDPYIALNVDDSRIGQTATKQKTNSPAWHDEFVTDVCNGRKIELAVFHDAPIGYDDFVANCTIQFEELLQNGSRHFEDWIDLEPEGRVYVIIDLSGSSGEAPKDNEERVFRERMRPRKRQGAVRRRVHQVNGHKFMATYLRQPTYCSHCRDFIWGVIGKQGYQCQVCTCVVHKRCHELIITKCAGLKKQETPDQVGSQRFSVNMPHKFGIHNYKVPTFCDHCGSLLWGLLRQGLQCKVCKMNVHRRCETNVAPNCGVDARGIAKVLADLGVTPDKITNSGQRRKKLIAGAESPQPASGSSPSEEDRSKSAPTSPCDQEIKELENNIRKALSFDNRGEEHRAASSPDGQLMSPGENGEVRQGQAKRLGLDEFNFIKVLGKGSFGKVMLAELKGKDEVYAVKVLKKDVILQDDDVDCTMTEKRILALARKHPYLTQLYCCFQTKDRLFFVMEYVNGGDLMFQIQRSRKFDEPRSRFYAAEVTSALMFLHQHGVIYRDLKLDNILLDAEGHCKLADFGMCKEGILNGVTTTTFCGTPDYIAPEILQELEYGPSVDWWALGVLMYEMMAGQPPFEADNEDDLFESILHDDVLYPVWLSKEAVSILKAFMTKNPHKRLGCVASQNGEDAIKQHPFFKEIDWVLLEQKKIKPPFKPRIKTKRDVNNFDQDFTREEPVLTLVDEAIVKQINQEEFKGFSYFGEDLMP
Put plainly: Selectivity interaction (Millipore kinase profiler) EUB0000124b PRKCE. The conditions noted are these: at 10 µM.

Assay [4] has as its target Protein arginine N-methyltransferase 3 (Homo sapiens, UniProt O60678). Put plainly: Selectivity interaction (Methyltransferase screen (Scintillation proximity assays)) EUB0000255b PRMT3. (In a scintillation proximity assay essentially only radioactivity close to the scintillant gives light.)
Assay [5] has as its target Tyrosine-protein kinase JAK2 (Homo sapiens, UniProt O60674). As to the kind of experiment: Selectivity interaction (KinomeScan (DiscoverX)) EUB0001049a JAK2. The conditions noted are these: at 1 µM.
The test system of assay [6] is RAF proto-oncogene serine/threonine-protein kinase (Homo sapiens), P04049 [Y340D,Y341D]. As to the kind of experiment: Selectivity interaction (LanthaScreen Eu Kinase Binding Assay) EUB0001632a RAF1. The conditions noted are these: at 10 µM. (TR-FRET usually uses a lanthanide donor and a delayed reading to cut background.)
The target of assay [7] is Focal adhesion kinase 1 (Homo sapiens, UniProt Q05397). As to the kind of experiment: Selectivity interaction (ActivX KiNativ screen (kinase selectivity in THP-1 cell lysates)) EUB0000639a PTK2. As to conditions: lysate, at 0.2 µM. It is filed as subcellular.
For assay [8], the target named is T2, Dual specificity mitogen-activated protein kinase kinase 4 (Homo sapiens) (UniProt P45985).
T2 sequence (whole entry): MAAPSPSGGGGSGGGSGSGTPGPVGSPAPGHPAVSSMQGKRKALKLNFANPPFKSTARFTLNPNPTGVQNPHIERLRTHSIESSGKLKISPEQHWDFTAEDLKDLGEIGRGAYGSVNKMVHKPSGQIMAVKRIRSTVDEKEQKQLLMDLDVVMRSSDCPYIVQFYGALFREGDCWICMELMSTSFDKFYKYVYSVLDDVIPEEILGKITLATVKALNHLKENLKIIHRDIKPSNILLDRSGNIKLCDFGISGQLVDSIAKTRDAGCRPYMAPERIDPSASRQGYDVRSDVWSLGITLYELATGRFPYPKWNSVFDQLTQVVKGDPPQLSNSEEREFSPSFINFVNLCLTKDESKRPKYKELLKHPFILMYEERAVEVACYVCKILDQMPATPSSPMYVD
Put plainly: Selectivity interaction (ActivX KiNativ screen (kinase selectivity in THP-1 cell lysates)) EUB0000639a MAP2K4. The conditions noted are these: lysate, at 0.2 µM. Format: subcellular.

In assay [9] the target is T3, Dual specificity mitogen-activated protein kinase kinase 6 (Homo sapiens) (UniProt P52564).
T3 sequence (whole entry): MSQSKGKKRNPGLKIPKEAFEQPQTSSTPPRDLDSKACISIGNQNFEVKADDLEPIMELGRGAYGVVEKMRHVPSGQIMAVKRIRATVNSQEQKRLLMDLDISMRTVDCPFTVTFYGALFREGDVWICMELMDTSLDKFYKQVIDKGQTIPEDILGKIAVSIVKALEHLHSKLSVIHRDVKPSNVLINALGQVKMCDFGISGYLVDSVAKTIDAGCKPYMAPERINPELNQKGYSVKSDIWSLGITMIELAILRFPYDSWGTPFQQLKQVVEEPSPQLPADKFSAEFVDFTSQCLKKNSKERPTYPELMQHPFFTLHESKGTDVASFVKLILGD
As to the kind of experiment: Selectivity interaction (ActivX KiNativ screen (kinase selectivity in THP-1 cell lysates)) EUB0000639a MAP2K6. The conditions noted are these: lysate, at 1 µM. It is filed as subcellular.

The target in assay [10] is T4, Tyrosine-protein kinase Tec (Homo sapiens) (UniProt P42680).
T4 sequence (whole entry): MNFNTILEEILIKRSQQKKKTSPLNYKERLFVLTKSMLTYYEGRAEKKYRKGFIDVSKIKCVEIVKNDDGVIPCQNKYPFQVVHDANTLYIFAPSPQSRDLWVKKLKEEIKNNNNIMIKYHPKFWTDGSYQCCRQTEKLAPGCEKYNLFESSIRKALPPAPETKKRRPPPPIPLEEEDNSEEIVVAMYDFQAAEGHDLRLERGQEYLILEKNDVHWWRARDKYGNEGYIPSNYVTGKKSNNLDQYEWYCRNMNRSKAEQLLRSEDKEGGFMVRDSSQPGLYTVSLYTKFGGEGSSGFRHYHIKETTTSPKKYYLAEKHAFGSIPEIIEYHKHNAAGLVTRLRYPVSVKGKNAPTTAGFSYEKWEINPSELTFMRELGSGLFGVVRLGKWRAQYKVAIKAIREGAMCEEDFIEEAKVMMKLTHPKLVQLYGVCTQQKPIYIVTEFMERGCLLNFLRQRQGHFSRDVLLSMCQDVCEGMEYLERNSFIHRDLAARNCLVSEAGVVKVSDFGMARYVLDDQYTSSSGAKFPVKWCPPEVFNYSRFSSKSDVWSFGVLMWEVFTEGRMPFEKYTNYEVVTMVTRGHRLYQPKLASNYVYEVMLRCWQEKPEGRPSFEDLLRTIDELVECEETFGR
As to the kind of experiment: Selectivity interaction (ActivX KiNativ screen (kinase selectivity in THP-1 cell lysates)) EUB0000639a TEC. Format: subcellular. The conditions noted are these: lysate, at 5 µM.

Assay [11] deals with Serine/threonine-protein kinase ATR (Homo sapiens) (UniProt Q13535). Put plainly: Selectivity interaction (ActivX KiNativ screen (ex vivo kinase selectivity in human PBMCs)) EUB0001619a ATR. The conditions noted are these: PBMC, at 1 µM. It is filed as cell-based.
Assay [12] concerns the target Casein kinase I isoform gamma-3 (Homo sapiens) (UniProt Q9Y6M4). Put plainly: Selectivity interaction (KinomeScan (DiscoverX)) EUB0000618a CSNK1G3. As to conditions: at 10 µM.

Chain of Protein arginine N-methyltransferase 3 (O60678 2-531 limits assumed): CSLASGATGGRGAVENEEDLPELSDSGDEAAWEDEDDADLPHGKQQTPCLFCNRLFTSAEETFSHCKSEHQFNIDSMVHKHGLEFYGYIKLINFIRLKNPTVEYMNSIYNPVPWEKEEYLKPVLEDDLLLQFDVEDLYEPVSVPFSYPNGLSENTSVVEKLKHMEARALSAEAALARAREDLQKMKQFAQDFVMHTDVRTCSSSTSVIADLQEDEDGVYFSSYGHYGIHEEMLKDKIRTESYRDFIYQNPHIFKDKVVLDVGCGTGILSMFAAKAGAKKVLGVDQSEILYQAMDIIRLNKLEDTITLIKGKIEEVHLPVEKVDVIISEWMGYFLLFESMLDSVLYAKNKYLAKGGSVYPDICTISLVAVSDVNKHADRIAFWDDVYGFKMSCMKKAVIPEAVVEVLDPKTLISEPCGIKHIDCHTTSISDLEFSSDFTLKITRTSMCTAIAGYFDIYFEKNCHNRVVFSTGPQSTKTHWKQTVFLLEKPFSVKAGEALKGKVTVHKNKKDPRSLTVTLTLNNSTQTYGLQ
Chain of RAF proto-oncogene serine/threonine-protein kinase (Homo sapiens), P04049 [Y340D,Y341D] (P04049 whole entry Y340D/Y341D): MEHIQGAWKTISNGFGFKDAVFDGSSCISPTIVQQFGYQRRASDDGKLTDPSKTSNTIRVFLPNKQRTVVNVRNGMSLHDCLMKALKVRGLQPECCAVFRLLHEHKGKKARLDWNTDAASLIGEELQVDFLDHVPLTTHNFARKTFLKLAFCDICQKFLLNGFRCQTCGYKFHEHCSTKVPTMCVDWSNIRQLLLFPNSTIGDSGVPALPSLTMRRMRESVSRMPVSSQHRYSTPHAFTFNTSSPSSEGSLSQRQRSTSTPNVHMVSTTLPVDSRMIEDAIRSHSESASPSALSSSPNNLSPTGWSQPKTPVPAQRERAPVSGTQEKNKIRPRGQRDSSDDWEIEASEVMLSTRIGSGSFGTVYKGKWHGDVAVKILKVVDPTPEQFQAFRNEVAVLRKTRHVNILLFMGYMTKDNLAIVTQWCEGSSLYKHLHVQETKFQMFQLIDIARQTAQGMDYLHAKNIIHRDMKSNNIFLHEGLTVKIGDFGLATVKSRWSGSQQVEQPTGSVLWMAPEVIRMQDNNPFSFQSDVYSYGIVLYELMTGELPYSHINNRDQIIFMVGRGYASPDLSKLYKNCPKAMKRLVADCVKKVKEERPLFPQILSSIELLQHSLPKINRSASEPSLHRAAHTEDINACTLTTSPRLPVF
Chain of Serine/threonine-protein kinase ATR (Homo sapiens) (Q13535 whole entry, looked up, canonical isoform): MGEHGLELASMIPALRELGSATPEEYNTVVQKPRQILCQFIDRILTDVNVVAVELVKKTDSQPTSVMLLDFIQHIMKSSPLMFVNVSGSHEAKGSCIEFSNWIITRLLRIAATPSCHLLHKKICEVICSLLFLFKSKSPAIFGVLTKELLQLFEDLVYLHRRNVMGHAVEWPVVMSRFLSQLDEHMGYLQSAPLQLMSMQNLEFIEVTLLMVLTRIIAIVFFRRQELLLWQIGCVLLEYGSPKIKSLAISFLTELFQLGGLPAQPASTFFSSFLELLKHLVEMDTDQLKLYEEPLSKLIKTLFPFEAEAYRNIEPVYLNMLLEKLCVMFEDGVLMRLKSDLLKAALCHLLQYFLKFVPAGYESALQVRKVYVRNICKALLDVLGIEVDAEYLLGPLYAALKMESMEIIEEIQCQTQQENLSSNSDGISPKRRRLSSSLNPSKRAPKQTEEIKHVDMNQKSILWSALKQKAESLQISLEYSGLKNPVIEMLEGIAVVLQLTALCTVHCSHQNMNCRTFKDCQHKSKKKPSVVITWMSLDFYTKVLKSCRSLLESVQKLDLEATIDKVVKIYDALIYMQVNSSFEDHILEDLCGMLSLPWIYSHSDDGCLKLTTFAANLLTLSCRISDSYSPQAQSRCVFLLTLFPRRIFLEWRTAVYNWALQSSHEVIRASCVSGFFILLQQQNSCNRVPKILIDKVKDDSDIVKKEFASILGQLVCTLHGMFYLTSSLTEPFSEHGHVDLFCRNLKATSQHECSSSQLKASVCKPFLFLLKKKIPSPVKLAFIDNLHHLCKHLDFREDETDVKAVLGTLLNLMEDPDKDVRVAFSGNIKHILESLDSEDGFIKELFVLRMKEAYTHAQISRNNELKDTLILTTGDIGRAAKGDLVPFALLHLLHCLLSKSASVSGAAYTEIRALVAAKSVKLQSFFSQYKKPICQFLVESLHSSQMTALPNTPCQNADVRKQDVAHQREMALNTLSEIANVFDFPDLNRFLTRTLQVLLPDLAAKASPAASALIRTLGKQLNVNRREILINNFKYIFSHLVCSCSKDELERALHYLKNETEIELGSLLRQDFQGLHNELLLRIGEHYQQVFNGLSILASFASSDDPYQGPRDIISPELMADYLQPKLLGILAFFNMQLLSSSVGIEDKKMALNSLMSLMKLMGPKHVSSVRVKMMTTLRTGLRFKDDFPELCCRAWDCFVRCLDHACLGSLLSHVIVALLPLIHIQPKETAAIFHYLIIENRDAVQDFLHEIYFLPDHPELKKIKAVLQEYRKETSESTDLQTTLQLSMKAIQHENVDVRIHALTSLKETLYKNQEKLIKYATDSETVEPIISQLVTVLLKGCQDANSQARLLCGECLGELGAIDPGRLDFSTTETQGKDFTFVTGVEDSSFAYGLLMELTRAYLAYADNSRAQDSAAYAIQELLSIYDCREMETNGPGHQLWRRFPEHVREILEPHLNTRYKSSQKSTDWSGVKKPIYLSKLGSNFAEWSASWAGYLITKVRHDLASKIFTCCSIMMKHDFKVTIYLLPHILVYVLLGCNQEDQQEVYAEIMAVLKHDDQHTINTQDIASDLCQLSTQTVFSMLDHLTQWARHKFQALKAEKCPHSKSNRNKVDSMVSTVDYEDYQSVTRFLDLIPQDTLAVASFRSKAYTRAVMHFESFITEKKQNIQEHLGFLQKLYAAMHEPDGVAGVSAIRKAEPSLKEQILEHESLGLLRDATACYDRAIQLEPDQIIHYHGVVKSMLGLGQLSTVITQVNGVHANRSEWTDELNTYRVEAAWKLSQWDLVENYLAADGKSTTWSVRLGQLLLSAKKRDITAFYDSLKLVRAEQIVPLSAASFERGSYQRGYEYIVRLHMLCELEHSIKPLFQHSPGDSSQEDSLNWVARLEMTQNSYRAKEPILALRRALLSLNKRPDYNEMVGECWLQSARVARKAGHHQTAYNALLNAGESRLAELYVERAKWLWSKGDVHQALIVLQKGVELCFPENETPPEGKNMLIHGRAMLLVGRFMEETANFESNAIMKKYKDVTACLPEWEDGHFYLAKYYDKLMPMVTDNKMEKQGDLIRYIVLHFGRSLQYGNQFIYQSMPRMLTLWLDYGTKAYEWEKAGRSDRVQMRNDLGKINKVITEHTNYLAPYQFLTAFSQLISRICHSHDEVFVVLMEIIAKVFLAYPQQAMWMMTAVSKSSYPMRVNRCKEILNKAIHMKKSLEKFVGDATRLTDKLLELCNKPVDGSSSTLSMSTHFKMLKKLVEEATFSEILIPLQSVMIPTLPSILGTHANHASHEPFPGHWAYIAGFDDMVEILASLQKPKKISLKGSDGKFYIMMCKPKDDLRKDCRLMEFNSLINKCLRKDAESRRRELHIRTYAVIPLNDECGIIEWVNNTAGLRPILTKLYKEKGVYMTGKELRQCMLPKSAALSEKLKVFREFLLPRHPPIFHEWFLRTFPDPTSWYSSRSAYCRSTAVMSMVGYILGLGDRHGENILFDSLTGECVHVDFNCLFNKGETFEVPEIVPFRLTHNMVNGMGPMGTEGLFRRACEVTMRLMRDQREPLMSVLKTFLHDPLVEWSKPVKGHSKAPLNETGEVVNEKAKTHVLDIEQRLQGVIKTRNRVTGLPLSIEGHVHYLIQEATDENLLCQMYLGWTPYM
Chain of Serine/threonine-protein kinase 24 (Homo sapiens) (Q9Y6E0 whole entry, looked up): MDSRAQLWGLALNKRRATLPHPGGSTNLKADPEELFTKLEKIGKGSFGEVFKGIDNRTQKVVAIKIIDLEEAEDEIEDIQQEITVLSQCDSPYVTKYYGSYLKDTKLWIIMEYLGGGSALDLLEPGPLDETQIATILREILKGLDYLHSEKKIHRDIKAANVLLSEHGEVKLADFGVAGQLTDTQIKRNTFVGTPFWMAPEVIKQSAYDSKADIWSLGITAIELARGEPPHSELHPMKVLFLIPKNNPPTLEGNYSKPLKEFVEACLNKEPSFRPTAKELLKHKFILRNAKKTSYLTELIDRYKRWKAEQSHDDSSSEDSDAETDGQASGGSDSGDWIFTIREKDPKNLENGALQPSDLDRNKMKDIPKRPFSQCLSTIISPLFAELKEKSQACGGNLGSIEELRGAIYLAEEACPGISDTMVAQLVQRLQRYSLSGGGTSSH
Chain of Tyrosine-protein kinase FRK (Homo sapiens) (P42685 whole entry): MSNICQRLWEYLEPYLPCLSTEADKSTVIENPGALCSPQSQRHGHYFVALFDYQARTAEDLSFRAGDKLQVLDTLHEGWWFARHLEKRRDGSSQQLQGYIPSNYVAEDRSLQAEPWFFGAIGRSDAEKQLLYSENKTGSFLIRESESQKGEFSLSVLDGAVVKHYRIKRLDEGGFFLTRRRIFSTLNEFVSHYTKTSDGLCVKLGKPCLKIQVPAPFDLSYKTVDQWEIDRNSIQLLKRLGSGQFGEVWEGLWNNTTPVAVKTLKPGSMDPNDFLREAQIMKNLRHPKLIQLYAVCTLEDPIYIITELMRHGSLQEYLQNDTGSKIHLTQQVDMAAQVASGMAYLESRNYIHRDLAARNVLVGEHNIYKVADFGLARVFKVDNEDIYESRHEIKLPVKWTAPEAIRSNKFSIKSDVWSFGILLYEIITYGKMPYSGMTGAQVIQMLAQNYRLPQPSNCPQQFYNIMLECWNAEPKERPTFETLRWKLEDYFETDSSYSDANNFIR

In the case of `Cc1cc([C@@H](C)Nc2ccccc2C(=O)O)c2nc(N3CCOCC3)cc(=O)n2c1` [AZD-6482], the % of control in assay [1] is 83%.

`Nc1cnc(N2CCc3cc(S(=O)(=O)Nc4c(F)cc(Cl)cc4F)cc(N4CCCC4=O)c32)nc1` [TP-020n] showed a % of control in assay [2] of 100%.

Consider `CC(=O)Nc1cccc(-n2c(=O)n(C3CC3)c(=O)c3c(Nc4ccc(I)cc4F)n(C)c(=O)c(C)c32)c1`, for which the % of control in [3] stood at 103%.

In the case of `COCCN1CCC(c2cc(CN(C)C(=O)c3cccc(Oc4ccccc4)c3)ccn2)CC1`, the % activity in assay [4] (at 1 µM) is more than 95%; in assay [4] (at 10 µM), more than 90%.

The compound `COc1cc(Nc2nc(C)cc(-c3cnn4nc(OC)ccc34)n2)cc(C(F)(F)F)c1` showed a % of control in [5] of 85%.

For the compound `Cn1cc(-n2cnc3c(NCc4nc5cc(Cl)c(Cl)cc5[nH]4)nc(N4CCOCC4)nc32)cn1`, the % of inhibition in assay [6] came to 5.65%.

Consider `CC[C@@H]1[C@H](F)C(=O)N[C@@H]1COc1nccc2cc(C(N)=O)c(OC)cc12` [ZIMLOVISERTIB], for which the % of inhibition in assay [7] is 5.5%; in assay [8], 15.8%; in assay [9] it was 17%; in assay [10], -18.7%.

As for `N#Cc1cccc(-c2c[nH]c3ncnc(N4CCOCC4)c23)c1`, the % of inhibition in assay [11] was 25%.

In assay [12], `O[C@H]1CC[C@H](Nc2ncc3nc(Nc4c(F)cc(F)cc4F)n([C@H]4CCOC4)c3n2)CC1` came in with a % of control of 100%.
